AC50 data for 90 compounds are collected here from PubChem BioAssay AID463074 (Broad Institute, 2010).

Values joined by “and” are separate entries in the source; they are usually repeats but may differ in a detail not shown here. Equal entries are not always repeated. Active and inactive are the calls of the source.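 Rule for the calls: active = AC50 no more than tenfold above the top dose tested, or full inhibition at every dose with a flat fit (cut at about 19 µM in these data); inconclusive = flat curve fit with inhibition between 30% and 70%, or poor fit; inactive = AC50 more than tenfold above the top dose tested.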

In the assay the test system is HMLE_sh_eGFP viability, CellTiter-Glo luminescence, 72 h. Nature of the assay: viability loss of HMLE_sh_eGFP cells – cell-based, luminescence, counter-screen for HMLE_sh_ECad selective toxicity project, dose response (AID 463074).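 Note: counterscreen control line to flag general toxicity for the HMLE_sh_ECad screen; potency for loss of viability as luminescence drops below DMSO wells.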 Background: Counterscreens check selectivity or assay interference.
Broadly, the AC50 is the midpoint of the concentration-response curve, whichever way the signal moves. For `COc1ccc(N(CC(=O)Nc2cc(C)ccc2C)S(=O)(=O)c2c(C)noc2C)cc1`, the AC50 was > 19.5 µM (inactive).

For the compound `CCOC(=O)c1c(NC(C)=O)sc2c1CCC(C=O)=C2Sc1ccccc1`, the AC50 was 3.63 µM.

With `N#Cc1c(NC(=O)c2ccc(Cn3cc(Br)cn3)o2)sc2c1CCCCC2`, the AC50 is 13.4 µM.

As to `CCOC(=O)c1[nH]c(C)c(C(=O)OCc2ccccc2F)c1C`, the AC50 is 1.03 µM.

Turning to `O=C(NC12CC3CC(CC(C3)C1)C2)c1ccc([N+](=O)[O-])o1`, the AC50 was 7.04 µM.

Take `O=[N+]([O-])c1cccc(-c2cc(-c3cc(Br)ccc3O)[nH]n2)c1`: the AC50 was 7.53 µM.

For `COc1ccc(-n2c(Cc3cccn3C)nnc2SCC(=O)Nc2cccc(Cl)c2)cc1`, the AC50 is > 19.5 µM (inactive).

With `COc1ccc(C(=O)c2ccc(OC)cc2OC)cc1`, the AC50 was 5.49 µM.

In the case of `COC(=O)c1cc(=O)n(Cc2ccc(F)cc2)c(=Nc2ccccc2)s1`, the AC50 is 5.87 µM.

On to `NC(=O)CC(NC(=O)Cc1ccc(Br)cc1)c1ccc(NC2CC3CCC2C3)c([N+](=O)[O-])c1` (stereo not given), for which the AC50 is 6.74 µM.

In the case of `O=C(Cc1ccc(F)cc1)Nc1nnc(SCC(=O)N2CCCCC2)s1`, the AC50 was > 19.5 µM (inactive).

For the compound `COc1ccc(-c2nc3cnccn3c2NC2CCCCC2)cc1-c1cccc(Cl)c1`, the AC50 is 6.62 µM.

Take `Cc1cc([N+](=O)[O-])nn1CC(=O)N/N=C/c1ccc(O)cc1O`: the AC50 is 5.4 µM.

In the case of `Nc1ccc2c(c1)Oc1ccccc1C=C2`, the AC50 is > 19.5 µM (inactive).

Regarding `COc1ccc(-c2cc([C@H]3[C@@H]4C=CCC[C@@]4(C)C(=O)N3Cc3ccccc3)ccc2F)cc1OC`, the AC50 is 5.67 µM.

`CC(=O)Nc1ccc(N=Cc2c(O)c(C(=O)Nc3ccccc3)cc3ccccc23)cc1`: the half-maximal activity concentration (AC50) is 4.21 µM.

As to `CC(=O)NNc1cccc(Cl)n1`, the AC50 is > 19.5 µM (inactive).

For the compound `Cc1nc(NC(=O)c2ccco2)sc1-c1csc(Nc2ccc(Cl)cc2)n1`, the AC50 was 2.54 µM.

Regarding `CCN1CCN(Cc2ccc(NC(=O)c3ccc(C)c(NC(=O)c4cc(-c5ccc(Br)cc5)n[nH]4)c3)cc2C(F)(F)F)CC1`, the AC50 is 11.6 µM.

As for `CN1CCc2c(sc(NC(=O)c3ccc(S(=O)(=O)N4CCc5ccccc54)cc3)c2C(N)=O)C1`, the AC50 was 5.01 µM.

For the compound `O=c1/c(=C\c2cccc(O)c2)sc2nc(-c3ccccc3)c(-c3ccccc3)n12`, the AC50 is 6.21 µM.

For the compound `Cc1ccccc1OCC(O)Cn1c2ccccc2c2ccccc21` (stereo not given), the AC50 is 6.78 µM.

Take `O=C1CC(c2ccc(F)cc2)CC2=C1C=Nc1ccccc1N2` (stereo not given): the AC50 is > 19.5 µM (inactive).

Consider `CSc1c(SCc2ccccc2)cnn(-c2ccccc2)c1=O`, for which the AC50 is 5.71 µM.

`CCCCc1oc2ccccc2c1C(=O)c1cc(I)c(OCCN(CC)CC)c(I)c1`: the AC50 is 6.92 µM.

As for `O=c1c2cc(NC(=S)NCCCN3CCC(Cc4ccccc4)CC3)ccc2nc2n1CCCCC2`, the AC50 is 6.21 µM.

As for `COC(=O)c1sc(-c2ccc(C(C)(C)C)cc2)cc1NC(=O)/C=C/C(=O)O`, the AC50 was 4.28 µM.

As to `Fc1ccc(C(OCCN2CCN(CCCc3ccccc3)CC2)c2ccc(F)cc2)cc1`, the AC50 was 3.12 µM.

Consider `COc1ccc(CCNc2cc(C)nc3c(-c4ccc(Cl)cc4)c(C)nn23)cc1OC`, for which the AC50 was 3.62 µM.

Take `Cc1cc(F)ccc1S(=O)(=O)Nc1ccccc1C(=O)Nc1ccccc1-c1nc2ccccc2[nH]1`: the concentration at half-maximal activity (AC50) was 5.51 µM.

For `CC(=NCc1cccc(Cl)c1)c1nc(-c2ccco2)oc1O`, the AC50 is 0.554 µM.

In the case of `CC(OC(=O)c1cccs1)C(=O)NC1CCCCC1C` (stereo not given), the AC50 is > 19.5 µM (inactive).

As for `C=CCC[C@H](Cc1ccc(F)cc1)C(=O)OC[C@@H](Cc1c[nH]c2ccccc12)NC(=O)[C@H](CC=C)CC(=O)N(CCO)Cc1ccccc1`, the AC50 is 4.1 µM.

With `O=C(Nc1nc(-c2cccc3ccccc23)cs1)c1ccc2c(c1)S(=O)(=O)c1ccccc1C2=O`, the AC50 was 11.3 µM.

On to `CC(c1ccccc1)N1C(=O)/C(=C/c2ccncc2)SC1=S` (stereo not given), for which the AC50 was 17.2 µM.

For the compound `CC12CCC(C/C1=N\N=C1\NC(=O)/C(=C\c3cccc(Br)c3)S1)C2(C)C` (stereo not given), the AC50 is 2.49 µM.

With `CCCCCCc1cc2cc(S(=O)(=O)c3ccc(C)cc3)c(=O)oc2cc1O`, the AC50 was 2.43 µM.

On to `CN(C)CCCn1c(=S)[nH]c2sc3c(c2c1=O)CCCC3`, for which the AC50 is > 19.5 µM (inactive).

In the case of `COc1ccc2sc(-c3ccccc3OC)c(-c3ccc(OCCN4CCCC4)cc3)c2c1`, the AC50 is 3.74 µM.

For `Cc1ccc(NC2=NCC(Cc3ccc(Br)cc3)S2)cc1` (stereo not given), the AC50 is 6.73 µM.

On to `C=CCn1c(Sc2ncc([N+](=O)[O-])s2)n[nH]c1=O`, for which the AC50 is 3.59 µM.

On to `Cc1nc2c(sc3nc(N4CCOCC4)c4c(c32)CC(C)(C)OC4)c(-c2ccccc2)c1C(=O)O`, for which the AC50 is 1.98 µM.

Consider `Cc1cc(C)c(NC(=O)CSCc2c(C)noc2C)c(C)c1`, for which the AC50 was > 19.5 µM (inactive).

In the case of `O=C(/C=C/c1ccccc1)NC(NC(=S)Nc1cc(Cl)ccc1Cl)C(Cl)(Cl)Cl` (stereo not given), the AC50 is 6.28 µM.

For the compound `CCCC(=O)NC(c1ccc2c(c1)OCO2)c1cc(Cl)c2cccnc2c1O` (stereo not given), the half-maximal activity concentration (AC50) is 3.1 µM.

Take `CCN(CC)CCOc1ccc(/C(=C(/Cl)c2ccccc2)c2ccccc2)cc1`: the AC50 is 0.992 µM and 2.55 µM.

Regarding `O=[N+]([O-])c1ccc(N/N=C/c2c[nH]c3ccccc23)c(S(=O)(=O)Nc2ccc(Cl)cc2)c1`, the AC50 was 1.66 µM.

Turning to `Cc1cc(C)cc(NS(=O)(=O)c2ccc3[nH]cc(C(=O)NCc4ccco4)c(=O)c3c2)c1`, the AC50 was 1.5 µM.

Consider `CCN(CC)S(=O)(=O)c1ccc(NC(=O)Nc2cccc(C(F)(F)F)c2)cc1`, for which the AC50 was 3.54 µM.

As to `Clc1ccc(-c2nnnn2-c2ccc(Cl)c(Cl)c2)cc1Cl`, the AC50 is 15.2 µM.

As for `C/C(=N\Nc1cc(C(F)(F)F)ccc1Cl)c1ccccc1O`, the AC50 was 19.9 µM.

In the case of `C=C(C)COc1ccc(-c2n[nH]c(C)c2-c2ccc(OC)c(OC)c2)c(O)c1`, the AC50 was 2.65 µM.

`O=c1cc(N2CCCCC2)c(-c2ccccc2)nn1Cc1ccc(Cl)cc1`: the AC50 was 3.77 µM.

In the case of `O=c1[nH]c(CN2CCN(c3ccccn3)CC2)nc2c(Br)cc(Br)cc12`, the AC50 was 10.3 µM.

With `Cc1nc(NC(=O)CC(C)C)sc1-c1csc(Nc2ccc(Cl)cc2Cl)n1`, the AC50 is 2.38 µM.

Turning to `COc1ccc(-c2cc(C(F)(F)F)nc(S(C)(=O)=O)n2)cc1`, the AC50 is 3.56 µM.

For the compound `O=C(CN1CCCCCC1)Nc1ccccc1Oc1ccccc1`, the AC50 is 0.808 µM.

With `COc1cccc(/C=N/Nc2ncc(C(F)(F)F)cc2Cl)c1O`, the AC50 is 0.665 µM.

For `O=C(N[C@H]1C/C=C\C[C@@H](CC(=O)N(CCO)Cc2ccccc2)C(=O)NC[C@H](c2ccccc2)OC1=O)OCC1c2ccccc2-c2ccccc21`, the AC50 is 2.41 µM.

`COc1ccc2c(c1)C(=O)[C@H](O)[C@@H](c1ccc(OC)c(Br)c1)O2`: the AC50 is 3.61 µM.

As for `COc1cc(Nc2nc(-c3ccccc3)c3cc(C)ccc3n2)cc(OC)c1OC`, the half-maximal activity concentration (AC50) is 5.17 µM.

As for `O=C(Nc1ccc(-c2csc(Nc3cccc(C(F)(F)F)c3)n2)cc1)c1ccccc1`, the AC50 is 1.96 µM.

`Cc1ccc(NC(=S)N(CCCN2CCCC2)Cc2cccn2Cc2ccc(Cl)cc2)cc1Cl`: the AC50 is 4.92 µM.

Regarding `COc1ccc(-c2sc3ccccc3c2C#CCCO)cc1`, the concentration at half-maximal activity (AC50) is 6.5 µM.

On to `CCCCCCCC/C=C\CCCCCCCC(=O)NCCc1ccc(O)c(O)c1`, for which the AC50 is 4.61 µM.

In the case of `CC1(C)C[C@H](O)[C@]2(CO)[C@H](O)C[C@]3(C)C(=CCC4[C@@]5(C)CC[C@H](O)C(C)(C)C5CC[C@]43C)[C@@H]2C1` (stereo not given in full), the AC50 is 3.63 µM.

As to `Cc1ccc(C(=O)N/N=C\c2ccc(-c3ccc(Cl)c(Cl)c3)o2)cn1`, the AC50 is 5.54 µM.

Regarding `O=C1NC(=O)N(Cc2ccccc2)C(=O)/C1=C/C=C/c1ccco1`, the AC50 is 2.04 µM.

On to `O=c1c2ccccc2nc(/C=C/c2ccccc2)n1-c1ccccc1O`, for which the AC50 is 10.7 µM.

On to `Oc1ccc(C2=NN(c3ccccc3)C(c3ccc(F)cc3)C2)cc1` (stereo not given), for which the AC50 is 3.45 µM.

`CCOC(=O)[C@@H]1[C@H]2COc3cc(OC)ccc3[C@H]2N2C(=O)N(c3ccc(C(F)(F)F)cc3)C(=O)[C@]12C`: the AC50 is 4.62 µM.

As to `COc1cccc(-c2ccc(C#N)c(OC(=O)c3c(Cl)cccc3Cl)n2)c1`, the AC50 was 4.45 µM.

Turning to `CCOC(=O)C(=O)NNc1ccc(F)cc1`, the AC50 was 1.45 µM.

For `CCOC(=O)C(=Cc1ccc(-n2ccnc2)cc1)C(=O)OCC`, the AC50 is 7.68 µM.

Take `O=c1cc(NS(=O)(=O)c2ccccc2)nc(SCc2ccc(Cl)cc2)[nH]1`: the AC50 is 5.9 µM.

`COc1cccc(-c2sc3ccc(OC)cc3c2C#CCC(C)O)c1` (stereo not given): the AC50 was 5.4 µM.

For the compound `O=C(CN(c1cccc(C(F)(F)F)c1)S(=O)(=O)c1ccc(Cl)c([N+](=O)[O-])c1)NCc1ccc(F)cc1`, the AC50 is 3.26 µM.

As to `Oc1ccc(Nc2nc(-c3ccc4ccccc4c3)cs2)cc1`, the half-maximal activity concentration (AC50) was 7.1 µM.

For `O=S(=O)(Nc1nc2ccccc2nc1N1CCN(c2ccccc2F)CC1)c1ccc(Cl)cc1`, the AC50 was 5.8 µM.

For `C[C@]12CCC(O)CC1CCC1C2CC[C@]2(C)C(c3cc(C(F)(F)F)n[nH]3)CCC12` (stereo not given in full), the AC50 was 1.78 µM.

With `Cc1ccc(Oc2c(C(N)=O)cc([N+](=O)[O-])cc2[N+](=O)[O-])cc1`, the AC50 is 3.84 µM.

As to `Cc1cccc2sc(NC(=O)C3c4ccccc4Oc4ccccc43)nc12`, the AC50 is 5.71 µM.

With `CC(C)C[C@H](N)c1nnc(S(=O)(=O)Cc2ccc(F)cc2)o1`, the AC50 was 8.54 µM.

On to `CC1=C(C(=O)OC2CCCC2)C(c2coc3ccccc3c2=O)C2=C(CC(C)(C)CC2=O)N1` (stereo not given), for which the AC50 is > 19.5 µM (inactive).

Turning to `CC1CCN(CC(CS(=O)(=O)c2ccc([N+](=O)[O-])cc2)N2CCC(C)CC2)CC1` (stereo not given), the AC50 was 6.58 µM.

As to `Cc1nn(-c2nc3ccccc3s2)c(C)c1Oc1ccccc1O`, the AC50 is 5.71 µM.

On to `C=C(C)COc1ccc(-c2[nH]ncc2-c2ccc(OC)c(OC)c2)c(O)c1`, for which the AC50 was 4.5 µM.

Take `CCN(CC)C1CCN(C(=O)c2cc(COc3ccc(F)cc3Cl)on2)C1` (stereo not given): the AC50 is 15.4 µM.

Turning to `Cc1ccc(NS(=O)(=O)c2sc3ccc(Cl)cc3c2C)cc1`, the AC50 was 3.78 µM.

In the case of `O=C(N/N=C\c1cc(Br)ccc1O)c1ccc(S(=O)(=O)N2CCCCC2)cc1`, the half-maximal activity concentration (AC50) is 2.75 µM.
